Measured values from ChEMBL document CHEMBL3885881, “DrugMatrix”.

Species on record: Rattus norvegicus
Assay: DrugMatrix - Regimen: Daily Repeat
Type: toxicity, organism-based, Sprague-Dawley
Set-up: regimen Daily Repeat, gender Male, age 6-8 weeks
Details: in vivo, po, route oral GAVAGE, […]; for ABSOLUTE BASOPHIL / ABSOLUTE EOSINOPHIL / ABSOLUTE LYMPHOCYTE / ABSOLUTE MONOCYTE / ABSOLUTE SEGMENTED NEUTROPHIL / BASOPHIL / EOSINOPHIL / ERYTHROCYTE COUNT / HEMATOCRIT / HEMOGLOBIN / LEUKOCYTE COUNT / LYMPHOCYTE / MEAN CORPUSCULAR HEMOGLOBIN / MEAN CORPUSCULAR HEMOGLOBIN CONCENTRATION / MEAN CORPUSCULAR VOLUME / MONOCYTE / NEUTROPHIL / NUCLEATED RED BLOOD CELLS / PLATELET COUNT: tissue Blood; for ALANINE AMINOTRANSFERASE / ALBUMIN / ALKALINE PHOSPHATASE / ASPARTATE AMINOTRANSFERASE / BLOOD UREA NITROGEN / CARBON DIOXIDE / CHLORIDE / CHOLESTEROL / CREATINE PHOSPHOKINASE / CREATININE / GLUCOSE / LACTATE DEHYDROGENASE / LIPASE / PHOSPHORUS / POTASSIUM / SODIUM / TOTAL BILIRUBIN / TOTAL PROTEIN / URIC ACID: tissue Plasma
[1] = 5 mg/kg, 120 h, dose level Low, time 5 day
[2] = 94 mg/kg, 72 h, dose level High, time 3 day
[3] = 94 mg/kg, 120 h, dose level High, time 5 day

CC(C)n1c(/C=C/C(O)CC(O)CC(=O)O)c(-c2ccc(F)cc2)c2ccccc21 (centres undefined) [FLUVASTATIN]
ABSOLUTE BASOPHIL [1]: 0 CELLS/uL
ABSOLUTE EOSINOPHIL [1]: 0 CELLS/uL
ABSOLUTE LYMPHOCYTE [1]: 8489.33 CELLS/uL
ABSOLUTE MONOCYTE [1]: 28 CELLS/uL
ABSOLUTE SEGMENTED NEUTROPHIL [1]: 816 CELLS/uL
BASOPHIL [1]: 0%
EOSINOPHIL [1]: 0%
ERYTHROCYTE COUNT [1]: 5.73 x10E6/uL
HEMATOCRIT [1]: 34.77%
HEMOGLOBIN [1]: 13.73 G/DL
LEUKOCYTE COUNT [1]: 9.33 x10E3/uL
LYMPHOCYTE [1]: 90.67%
MEAN CORPUSCULAR HEMOGLOBIN [1]: 24 pg
MEAN CORPUSCULAR HEMOGLOBIN CONCENTRATION [1]: 39.5 G/DL
MEAN CORPUSCULAR VOLUME [1]: 60.73 fL
MONOCYTE [1]: 0.33%
NEUTROPHIL [1]: 9%
NUCLEATED RED BLOOD CELLS [1]: 0 /100WBC
PLATELET COUNT [1]: 1186.33 x10E3/uL
ALANINE AMINOTRANSFERASE [1]: 89.67 u/L
ALBUMIN [1]: 4.33 G/DL
ALKALINE PHOSPHATASE [1]: 440.33 u/L
ASPARTATE AMINOTRANSFERASE [1]: 141.33 u/L
BLOOD UREA NITROGEN [1]: 13 mg/dL
CARBON DIOXIDE [1]: 25.67 mmol/L
CHLORIDE [1]: 103 MEQ/L
CHOLESTEROL [1]: 59.67 mg/dL
CREATINE PHOSPHOKINASE [1]: 300.67 u/L
CREATININE [1]: 0.19 mg/dL
GLUCOSE [1]: 158.33 mg/dL
LACTATE DEHYDROGENASE [1]: 263.33 u/L
LIPASE [1]: 51.67 u/L
PHOSPHORUS [1]: 9.2 mg/dL
POTASSIUM [1]: 5.92 MEQ/L
SODIUM [1]: 148.8 MEQ/L
TOTAL BILIRUBIN [1]: 0.17 mg/dL
TOTAL PROTEIN [1]: 5.6 G/DL
URIC ACID [1]: 0.77 mg/dL
ABSOLUTE BASOPHIL [2]: 0 CELLS/uL
ABSOLUTE EOSINOPHIL [2]: 39 CELLS/uL
ABSOLUTE LYMPHOCYTE [2]: 7651.67 CELLS/uL
ABSOLUTE MONOCYTE [2]: 155.33 CELLS/uL
ABSOLUTE SEGMENTED NEUTROPHIL [2]: 2554 CELLS/uL
BASOPHIL [2]: 0%
EOSINOPHIL [2]: 0.33%
ERYTHROCYTE COUNT [2]: 5.55 x10E6/uL
HEMATOCRIT [2]: 35.43%
HEMOGLOBIN [2]: 13.93 G/DL
LEUKOCYTE COUNT [2]: 10.4 x10E3/uL
LYMPHOCYTE [2]: 73.33%
MEAN CORPUSCULAR HEMOGLOBIN [2]: 25.1 pg
MEAN CORPUSCULAR HEMOGLOBIN CONCENTRATION [2]: 39.33 G/DL
MEAN CORPUSCULAR VOLUME [2]: 63.83 fL
MONOCYTE [2]: 1.33%
NEUTROPHIL [2]: 25%
NUCLEATED RED BLOOD CELLS [2]: 0 /100WBC
PLATELET COUNT [2]: 1394.33 x10E3/uL
ALANINE AMINOTRANSFERASE [2]: 258.33 u/L
ALBUMIN [2]: 4.47 G/DL
ALKALINE PHOSPHATASE [2]: 597.67 u/L
ASPARTATE AMINOTRANSFERASE [2]: 446.67 u/L
BLOOD UREA NITROGEN [2]: 15 mg/dL
CARBON DIOXIDE [2]: 34.67 mmol/L
CHLORIDE [2]: 95.67 MEQ/L
CHOLESTEROL [2]: 55.67 mg/dL
CREATINE PHOSPHOKINASE [2]: 534 u/L
CREATININE [2]: 0.16 mg/dL
GLUCOSE [2]: 136.33 mg/dL
LACTATE DEHYDROGENASE [2]: 400.33 u/L
LIPASE [2]: 10 u/L
PHOSPHORUS [2]: 11.83 mg/dL
POTASSIUM [2]: 5.75 MEQ/L
SODIUM [2]: 143.43 MEQ/L
TOTAL BILIRUBIN [2]: 0.2 mg/dL
TOTAL PROTEIN [2]: 6.1 G/DL
URIC ACID [2]: 0.7 mg/dL
ABSOLUTE BASOPHIL [3]: 0 CELLS/uL
ABSOLUTE EOSINOPHIL [3]: 0 CELLS/uL
ABSOLUTE LYMPHOCYTE [3]: 6138.33 CELLS/uL
ABSOLUTE MONOCYTE [3]: 139 CELLS/uL
ABSOLUTE SEGMENTED NEUTROPHIL [3]: 2022.67 CELLS/uL
BASOPHIL [3]: 0%
EOSINOPHIL [3]: 0%
ERYTHROCYTE COUNT [3]: 6.14 x10E6/uL
HEMATOCRIT [3]: 37.2%
HEMOGLOBIN [3]: 14.47 G/DL
LEUKOCYTE COUNT [3]: 8.3 x10E3/uL
LYMPHOCYTE [3]: 74%
MEAN CORPUSCULAR HEMOGLOBIN [3]: 23.6 pg
MEAN CORPUSCULAR HEMOGLOBIN CONCENTRATION [3]: 38.9 G/DL
MEAN CORPUSCULAR VOLUME [3]: 60.67 fL
MONOCYTE [3]: 1.67%
NEUTROPHIL [3]: 24.33%
NUCLEATED RED BLOOD CELLS [3]: 0 /100WBC
PLATELET COUNT [3]: 1488.67 x10E3/uL
ALANINE AMINOTRANSFERASE [3]: 191 u/L
ALBUMIN [3]: 4.5 G/DL
ALKALINE PHOSPHATASE [3]: 802.67 u/L
ASPARTATE AMINOTRANSFERASE [3]: 387.67 u/L
BLOOD UREA NITROGEN [3]: 11.67 mg/dL
CARBON DIOXIDE [3]: 29.33 mmol/L
CHLORIDE [3]: 100 MEQ/L
CHOLESTEROL [3]: 53.33 mg/dL
CREATINE PHOSPHOKINASE [3]: 612.33 u/L
CREATININE [3]: 0.13 mg/dL
GLUCOSE [3]: 134.33 mg/dL
LACTATE DEHYDROGENASE [3]: 263.33 u/L
LIPASE [3]: 38.67 u/L
PHOSPHORUS [3]: 7.8 mg/dL
POTASSIUM [3]: 5.55 MEQ/L
SODIUM [3]: 149.05 MEQ/L
TOTAL BILIRUBIN [3]: 0.1 mg/dL
TOTAL PROTEIN [3]: 6.03 G/DL
URIC ACID [3]: 0.43 mg/dL
